Laboratory results taken from patent publication US20080160033A1, “Novel Screening Method” (Takeda Pharmaceutical Company Limited, priority 2003, published 2008).

Legend:
mouse 14273 = molecular target: T1, mouse 14273 (Mus musculus, UniProt Q7TMA4); assay: Change in intracellular calcium level (FLIPR) in CHO-K1 cells transiently expressing mouse 14273; assay type: cell-based; details: 30 μM fatty acid (FIG. 1-5); mouse 14273-expressed CHO-K1 cells; no response in expression vector alone-transfected control cells
T1 construct: expressed in transfected cells; host or cells: CHO-K1, transient transfection (Lipofectamine) with the pAKKO-111-based expression vector
T1 sequence (Q7TMA4 1-361): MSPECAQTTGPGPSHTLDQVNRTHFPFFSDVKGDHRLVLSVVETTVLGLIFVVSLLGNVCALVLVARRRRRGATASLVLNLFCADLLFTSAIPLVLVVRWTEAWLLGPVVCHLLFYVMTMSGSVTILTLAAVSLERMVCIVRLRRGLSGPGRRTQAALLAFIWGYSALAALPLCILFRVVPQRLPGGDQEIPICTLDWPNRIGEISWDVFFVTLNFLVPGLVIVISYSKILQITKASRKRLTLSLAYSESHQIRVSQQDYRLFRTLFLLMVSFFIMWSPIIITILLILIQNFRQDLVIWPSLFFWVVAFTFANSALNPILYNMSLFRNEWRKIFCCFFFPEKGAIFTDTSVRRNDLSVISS
Description: (§1) CHO-K1 cells were incubated in Ham F-12 medium (Invitrogen) containing […] calf fetal serum, unless otherwise indicated. On the day before transfection, the cells were plated in 4.5×10^5/10 cm^2 and incubated at 37° C., for 15 hours or longer in a CO2 incubator adjusted to a 5% CO2 concentration. Transfection was carried out by a modification of the procedure described in the protocol attached to the reagent, using Lipofectamine reagent (Invitrogen). Where a 6-well plate was used for the incubator, the procedure was performed as follows. First, 2 tubes each having a 1.5 ml volume were prepared and 100 μl each of Opti-MEM-1 medium (Invitrogen) were dispensed in each tube. Next, after 1 μg of the expression vector was charged in one tube and in another tube 6 μl of the Lipofectamine reagent was charged, they were mixed and settled at room temperature for 20 minutes. A mixture for transfection of The resulting solution was added with 800 μl of Opti-MEM-1 medium and the resulting mixture for transfection was added to CHO-K1 cells previously washed with Opti-MEM-1 medium, followed by incubation in a CO2 incubator for 6 hours. The cells after incubation were rinsed with PBS (Invitrogen), then scraped off using 0.05% trypsin-EDTA solution (Invitrogen) and recovered by centrifugation. The cells collected were counted and diluted to contain 5×10^4 cells per 100 μl of the medium. The dilution was dispensed in a black walled 96-well plate (Costar) at a density of 100 μl/well, followed by incubation overnight in a CO2 incubator. Various samples were added to the CHO-K1 cells, which transiently expressed the receptor by the transfection procedure described above, and a change in intracellular calcium level was measured using FLIPR (Molecular Device). To measure the change in intracellular calcium level on FILPR; the cells were pretreated as follows. First, an assay buffer was prepared to add fluorescent dye Fluo3-AM (DOJIN) to the cells, or to wash the cells immediately before the FLIPR assay. A solution was prepared by adding 20 ml of 1M HEPES (pH 7.4) (DOJIN) to 1000 ml of HBSS (Invitrogen) (hereinafter, HBSS/HEPES solution). After 710 mg of probenecid (Sigma) was dissolved in 5 nil of 1N NaOH, 5 ml of the HBSS/HEPES solution was further added to the solution and the two solutions were mixed with each other. Then, 10 ml of the solution mixture was added to the HBSS/HEPES solution and the resulting solution was used as the assay buffer. Next, 50 μg of Fluo3-AM was added to 21 μl of DMSO (DOJIN) and an equal volume of 20% pluronic acid (Molecular Probes) was added thereto, followed by mixing them. […] Following the pretreatment above, a change in intracellular calcium level was determined with FLIPR, after various test samples were added.

human 14273 [1] = molecular target: T2, human 14273 (Homo sapiens, UniProt Q5NUL3); assay: Change in intracellular calcium level (FLIPR) in CHO-K1 cells transiently expressing human 14273; assay type: cell-based; details: 30 μM fatty acid (FIG. 1-5); human 14273-expressed CHO-K1 cells; no response in expression vector alone-transfected control cells
T2 construct: expressed in transfected cells; host or cells: CHO-K1, transient transfection (Lipofectamine) with the pAKKO-111-based expression vector
T2 sequence (Q5NUL3 1-361): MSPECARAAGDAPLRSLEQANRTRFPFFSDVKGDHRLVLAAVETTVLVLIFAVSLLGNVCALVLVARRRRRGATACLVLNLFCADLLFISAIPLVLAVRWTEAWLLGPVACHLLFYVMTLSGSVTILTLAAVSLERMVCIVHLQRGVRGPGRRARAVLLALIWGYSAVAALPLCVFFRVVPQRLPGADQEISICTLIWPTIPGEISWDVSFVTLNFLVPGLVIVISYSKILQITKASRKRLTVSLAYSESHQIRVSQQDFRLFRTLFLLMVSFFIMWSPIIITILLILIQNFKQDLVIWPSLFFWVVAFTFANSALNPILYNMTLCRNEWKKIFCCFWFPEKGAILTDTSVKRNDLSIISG
Description: as §1

human 14273 [2] = molecular target: T2, human 14273; assay: Effects of fatty acids on cAMP production in human 14273-expressed CHO cells; assay type: cell-based; details: in the presence of forskolin (2 μM); fatty acid 30 μM (FIG. 9); not observed in control CHO cells without human 14273
Description: After the reaction, the cells were lysed in accordance with the formulation of cAMP Screen (ABI) and the intracellular cAMP level was assayed.

AtT-20 cells = assay: Suppression of CRF-induced ACTH secretion from AtT-20 cells; details: 10 nM CRF, 90 minutes; fatty acid with BSA
3T3-L1 cells = assay: Lipolysis (glycerol production) in 3T3-L1 adipose differentiation cells stimulated with isoproterenol; assay type: cell-based, mouse; details: 1×10^−9 M isoproterenol plus fatty acid, 2 hours; differentiated 3T3-L1 cells
Description: Effects on lipolysis were examined using mouse fibroblast cell line 3T3-L1 cells capable of differentiating into adipocytes. […] The 3T3-L1 cells were plated on a plate and incubated to become confluent. The cells were then treated for 48 hours in the aforesaid medium containing 10 μg/ml of insulin, 0.5 mM 3-isobutyl-1-methylxanthine (IBMX), 2.5 μM dexamethasone to induce differentiation into adipose. Incubation was continued for further 11 days. After the 3T3-L1 cells were differentiated into adipose, a change in the amount of glycerol produced by lipolysis was assayed. After the cells were washed with modified Krebs-Ringer buffer, 1×10^−9 M isoproterenol was added to the cell and simultaneously a fatty acid was added thereto, followed by treatment for 2 hours. The supernatant was then recovered. The glycerol content in the supernatant was determined using Free Glycerol Determination Kit (Sigma).

[3] = tested on: mouse 14273-GFP fused protein; assay: Suppression of expression of mouse 14273-GFP fused protein by siRNA in CHO cells (enzyme immunoassay); assay type: cell-based; details: siRNA 20 nM cotransfected to CHO cells, incubation for a day; absorbance at 450 nm
Description: After the culture supernatant was discarded and the cells were washed with HBSS (Invitrogen), the cells were fixed with 0.01% glutaraldehyde (Wako Pure Chemical) for 5 minutes, followed by blocking with 2% BSA-containing PBS (Takara Shuzo). Anti-GFP monoclonal antibody 3E6 (Nippon Gene) diluted to 500-fold was added to the cells. After incubation at room temperature for 2 hours, the cells were washed and HRP-labeled anti-mouse IgG antibody (ICN) diluted to 500-fold was added thereto, followed by incubation at room temperature for 2 hours. After washing, TMB microwell peroxidase substrate (Funakoshi) was added to the cells. After incubation for 30 minutes, sulfuric acid was added to discontinue the color-forming reaction and absorbance was measured at 450 nm.

| Compound | change in intracellular calcium level (mouse 14273) | change in intracellular calcium level (human 14273 [1]) | cAMP production suppressing activity (human 14273 [2]) | suppression of ACTH secretion induced by CRF (AtT-20 cells) | further results |
| --- | --- | --- | --- | --- | --- |
| CCCCCC/C=C\CCCCCCCC(=O)O [Palmitoleic acid] | specifically responded (increased the intracellular calcium level) | specifically responded (increased the intracellular calcium level) | – | – | – |
| CCCCC/C=C\C/C=C\C/C=C\C/C=C\CCCC(=O)O [arachidonic acid] | specifically responded (increased the intracellular calcium level) | specifically responded (increased the intracellular calcium level) | – | – | – |
| CCCC(=O)O [butyric acid] | – | – | did not show any suppressing activity | did not show any significant suppression | – |
| CCCCC/C=C\C/C=C\CCCCCCCC(=O)O [linoleic acid] | specifically responded (increased the intracellular calcium level) | specifically responded (increased the intracellular calcium level) | showed the cAMP production suppressing activity | – | – |
| CCCCC/C=C\C/C=C\CCCCCCCC(=O)OC [methyl linoleate] | – | – | – | – | glycerol production increased by isoproterenol stimulation (lipolysis) (3T3-L1 cells): such an activity was not observed |
| CCCCCCCC/C=C\CCCCCCCC(=O)O [oleic acid] | – | – | showed the cAMP production suppressing activity | – | – |
| CC/C=C\C/C=C\C/C=C\CCCCCCCC(=O)O [α-linoleic acid] | – | – | – | suppression of ACTH secretion induced by CRF was observed more significantly | – |
| CCCCC/C=C\C/C=C\C/C=C\CCCCC(=O)O [γ-linolenic acid] | specifically responded (increased the intracellular calcium level) | specifically responded (increased the intracellular calcium level) | showed the cAMP production suppressing activity | suppression of ACTH secretion induced by CRF was observed more significantly | glycerol production increased by isoproterenol stimulation (lipolysis) (3T3-L1 cells): resulted in lowering the glycerol production |
| m14i561: mouse 14273-specific siRNA; sense strand SEQ ID NO: 21, antisense strand SEQ ID NO: 22 (sense GGACCAGGAAAUUCCGAUUNN; antisense NNCCUGGUCCUUUAAGGCUAA; chemistry not fully specified; one strand is listed 3' to 5') | – | – | – | – | suppression of the expression level of pAKKO-14273-GFP [3]: 97% |
